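1) Cells in 96-well plates. 2) Compound, 48 h, 5 concentrations. 3) Linear interpolation between surrounding doses. 4) Unreached endpoint = highest concentration. GI50: concentration for 50% inhibition of growth.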 Calls of active or inactive are those of the source. No stated cut-off is given here; in the data, active = GI50 up to about 1.1 µM and inactive = higher.
Legend:
Test in all cases: NCI anticancer screen, dose series, 48 h
MOLT-4 = system: MOLT-4
OVCAR-4 = system: OVCAR-4
SF-295 = system: SF-295
NCI-H23 = system: NCI-H23
CAKI-1 = system: CAKI-1
KM12 = system: KM12
HCT-116 = system: HCT-116
786-0 = system: 786-0
UO-31 = system: UO-31
SNB-75 = system: SNB-75
SN12C = system: SN12C
A498 = system: A498
Malme-3M = system: Malme-3M
SR = system: SR
M14 = system: M14
HOP-92 = system: HOP-92
RPMI-8226 = system: RPMI-8226

Measured: GI50

N=C(CC(=O)Nc1ccc(Cl)cc1)Nc1ccccc1
inactive: MOLT-4 > 100 µM | OVCAR-4 > 100 µM | SF-295 > 100 µM | NCI-H23 > 100 µM | CAKI-1 > 100 µM | KM12 > 100 µM | HCT-116 > 100 µM | 786-0 > 100 µM | UO-31 > 100 µM | SNB-75 > 100 µM | SN12C > 100 µM | A498 > 100 µM | Malme-3M > 100 µM | SR > 100 µM | M14 > 100 µM

O=c1c2cc(Br)cc(Br)c2nc(CCCl)n1-c1ccc(O)c([N+](=O)[O-])c1
inactive: MOLT-4 23.8 µM | OVCAR-4 15.5 µM | SF-295 24.1 µM | NCI-H23 21.7 µM | HOP-92 24 µM | KM12 18.5 µM | RPMI-8226 30.2 µM | HCT-116 14.7 µM | 786-0 18.3 µM | UO-31 19.7 µM | SNB-75 19.8 µM | SN12C 17.6 µM | A498 25.8 µM | Malme-3M 19.1 µM | SR 41.5 µM | M14 17.2 µM

C/C(=N/NS(=O)(=O)c1ccc(C)cc1)c1cccc[n+]1[O-]
inactive: MOLT-4 > 100 µM | OVCAR-4 > 100 µM | SF-295 > 100 µM | NCI-H23 > 100 µM | CAKI-1 > 100 µM | HOP-92 > 100 µM | KM12 > 100 µM | RPMI-8226 > 100 µM | HCT-116 > 100 µM | 786-0 > 100 µM | UO-31 > 100 µM | SNB-75 > 100 µM | SN12C > 100 µM | A498 > 100 µM | SR > 100 µM | M14 > 100 µM

C/C(CC(=O)CCCC(=O)Nc1ccc(Cl)cc1Cl)=N/NC(=O)CC#N
inactive: MOLT-4 > 100 µM | OVCAR-4 > 100 µM | SF-295 > 100 µM | NCI-H23 > 100 µM | CAKI-1 > 100 µM | KM12 > 100 µM | RPMI-8226 > 100 µM | HCT-116 > 100 µM | 786-0 > 100 µM | UO-31 > 100 µM | SNB-75 > 100 µM | SN12C > 100 µM | A498 > 100 µM | Malme-3M > 100 µM | M14 > 100 µM

O=C(O)c1ccc2c(c1)C(=O)N(c1ccc(S(=O)(=O)c3ccc(N4C(=O)c5ccc(C(=O)O)cc5C4=O)cc3)cc1)C2=O
inactive: MOLT-4 > 100 µM | OVCAR-4 > 100 µM | SF-295 > 100 µM | NCI-H23 > 100 µM | CAKI-1 > 100 µM | KM12 > 100 µM | RPMI-8226 > 100 µM | HCT-116 > 100 µM | 786-0 > 100 µM | UO-31 > 100 µM | SNB-75 > 100 µM | SN12C > 100 µM | A498 > 100 µM | Malme-3M > 100 µM | SR > 100 µM | M14 > 100 µM

CCOc1ccccc1NC(=O)CSc1nnc(Cc2ccccc2)o1
inactive: MOLT-4 23 µM | OVCAR-4 26.4 µM | SF-295 98.4 µM | NCI-H23 17.2 µM | CAKI-1 20.5 µM | KM12 40.3 µM | RPMI-8226 35.6 µM | HCT-116 30.6 µM | 786-0 17.9 µM | UO-31 23.9 µM | SNB-75 56.1 µM | SN12C 26 µM | A498 66.7 µM | Malme-3M 15.6 µM | M14 21.9 µM

OC12c3ccccc3C1(N1CCOCC1)CCCCC21OCCCO1 (stereo unspecified)
inactive: MOLT-4 > 100 µM | OVCAR-4 > 100 µM | SF-295 > 100 µM | NCI-H23 > 100 µM | CAKI-1 > 100 µM | KM12 > 100 µM | RPMI-8226 > 100 µM | HCT-116 > 100 µM | 786-0 > 100 µM | SNB-75 > 100 µM | SN12C > 100 µM | A498 > 100 µM | Malme-3M > 100 µM | M14 > 100 µM

CCCCCCCCCCCc1nnc(N)o1
inactive: MOLT-4 26.6 µM | OVCAR-4 65.2 µM | SF-295 > 100 µM | NCI-H23 > 100 µM | HOP-92 > 100 µM | KM12 > 100 µM | RPMI-8226 > 100 µM | HCT-116 > 100 µM | 786-0 > 100 µM | UO-31 13.6 µM | SNB-75 > 100 µM | SN12C > 100 µM | Malme-3M > 100 µM | SR > 10 µM | M14 > 100 µM

CC1CC#CCOC(=O)CCCC1=O (stereo unspecified)
inactive: MOLT-4 > 100 µM | OVCAR-4 > 100 µM | SF-295 > 100 µM | NCI-H23 > 100 µM | KM12 > 100 µM | RPMI-8226 > 100 µM | HCT-116 > 100 µM | 786-0 > 100 µM | SNB-75 > 100 µM | SN12C > 100 µM | M14 > 100 µM

CCn1c(=O)nc2n(-c3ccc(SC)cc3)c3ccccc3nc-2c1=O
inactive: MOLT-4 > 100 µM | OVCAR-4 > 100 µM | SF-295 > 100 µM | NCI-H23 > 100 µM | CAKI-1 32.9 µM | HOP-92 > 100 µM | KM12 > 100 µM | RPMI-8226 71.1 µM | 786-0 > 100 µM | UO-31 > 100 µM | SNB-75 76 µM | SN12C > 100 µM | A498 > 100 µM | Malme-3M > 100 µM | M14 > 100 µM

COP12(OC)NC(=O)OC1(C(F)(F)F)c1ccccc1O2 (stereo unspecified)
inactive: MOLT-4 > 100 µM | OVCAR-4 > 100 µM | SF-295 > 100 µM | NCI-H23 > 100 µM | KM12 > 100 µM | HCT-116 > 100 µM | 786-0 > 100 µM | SNB-75 44.9 µM | SN12C > 100 µM | Malme-3M > 100 µM | M14 > 100 µM

COc1cc2ccnc(-c3c4ccccc4c(N)c4c(OC)c(OC)ccc34)c2cc1OC
inactive: MOLT-4 1.49 µM | OVCAR-4 1.97 µM | SF-295 3.18 µM | NCI-H23 3.21 µM | CAKI-1 2.65 µM | HOP-92 1.79 µM | KM12 2.38 µM | 786-0 2.65 µM | UO-31 3.18 µM | SN12C 3.47 µM | A498 3.02 µM | Malme-3M 3.32 µM | SR 1.8 µM

O=P1(c2ccccc2)CCCCC1
inactive: MOLT-4 > 100 µM | OVCAR-4 > 100 µM | SF-295 > 100 µM | NCI-H23 > 100 µM | KM12 > 100 µM | RPMI-8226 > 100 µM | HCT-116 > 100 µM | 786-0 > 100 µM | UO-31 > 100 µM | SNB-75 > 100 µM | SN12C > 100 µM | A498 > 100 µM | Malme-3M > 100 µM | SR > 100 µM | M14 > 100 µM

CC(=O)OC1(C)C(=O)OC1(C)C(C)=O (stereo unspecified)
inactive: MOLT-4 > 100 µM | OVCAR-4 > 100 µM | SF-295 > 100 µM | NCI-H23 > 100 µM | CAKI-1 > 100 µM | HOP-92 > 100 µM | KM12 > 100 µM | RPMI-8226 > 100 µM | HCT-116 > 100 µM | 786-0 > 100 µM | UO-31 > 100 µM | SNB-75 > 100 µM | SN12C > 100 µM | A498 > 100 µM | Malme-3M > 100 µM | M14 > 100 µM

COc1ccc(NC(=O)C2C(=O)N(c3ccc(OC)cc3)C(=O)/C2=N\NC(N)=O)cc1 (stereo unspecified)
inactive: OVCAR-4 34.1 µM | SF-295 37.1 µM | NCI-H23 56.1 µM | CAKI-1 > 100 µM | HOP-92 31.3 µM | KM12 20.3 µM | RPMI-8226 > 100 µM | HCT-116 21.2 µM | 786-0 21.5 µM | UO-31 27.7 µM | SNB-75 20.6 µM | SN12C 98.9 µM | A498 22.1 µM | Malme-3M 25.7 µM | M14 92.5 µM

COc1cccc(C(=O)C2C(=O)N(C)CCc3ccccc32)c1OC (stereo unspecified)
inactive: MOLT-4 > 100 µM | OVCAR-4 > 100 µM | NCI-H23 > 100 µM | CAKI-1 > 100 µM | HOP-92 > 100 µM | KM12 > 100 µM | RPMI-8226 > 100 µM | HCT-116 > 100 µM | 786-0 > 100 µM | UO-31 > 100 µM | SNB-75 > 100 µM | SN12C > 100 µM | A498 > 100 µM | Malme-3M > 100 µM | M14 > 100 µM

CS(=O)(=O)NNS(=O)(=O)c1ccc(Br)cc1
inactive: OVCAR-4 > 100 µM | NCI-H23 > 100 µM | CAKI-1 > 100 µM | HOP-92 > 100 µM | RPMI-8226 > 100 µM | HCT-116 > 100 µM | 786-0 > 100 µM | UO-31 > 100 µM | SNB-75 87.7 µM | A498 > 100 µM | Malme-3M > 100 µM | M14 > 100 µM

Cc1ccc2nc3c(Cl)cc(=O)cc-3sc2c1
inactive: MOLT-4 10.9 µM | OVCAR-4 16.1 µM | SF-295 25.8 µM | NCI-H23 > 10 µM | CAKI-1 27.4 µM | HOP-92 21.8 µM | KM12 > 10 µM | HCT-116 17.9 µM | 786-0 19.8 µM | UO-31 34 µM | SNB-75 21.5 µM | SN12C > 10 µM | Malme-3M 30 µM | SR > 10 µM | M14 22.1 µM

CC1(C)CCCC2(C)[C@@H]1CC[C@@]13CC(=O)[C@@](C)(CC[C@@H]21)C3 (stereo partly specified)
inactive: MOLT-4 57.4 µM | OVCAR-4 87.9 µM | SF-295 > 100 µM | NCI-H23 59.7 µM | CAKI-1 > 100 µM | HOP-92 > 100 µM | KM12 80.5 µM | RPMI-8226 57 µM | HCT-116 46.1 µM | 786-0 > 100 µM | UO-31 > 100 µM | SNB-75 > 100 µM | SN12C 93.5 µM | Malme-3M > 100 µM | SR 42.5 µM | M14 94.6 µM

— ChEMBL document CHEMBL1201862, “PubChem BioAssay data set” (2004)
